Measurements taken from article PMC1988858, “Nanosensor Detection of an Immunoregulatory Tryptophan Influx/Kynurenine Efflux Cycle” (PLoS Biology, 2007).

Key:
[1] = tested on: KB cells; assay: Perfusion ratio imaging of LAT1-mediated tryptophan uptake and exchange in KB cells expressing FLIPW-CTYT; assay type: cell-based, human; conditions: for Export of intracellular tryptophan upon perfusion (FRET ratio decrease): 100 μM L-His, 200 μM DL-K, 200 μM DL-HK, 1,000 μM HAA
Experimental: (§1) Cells were cultured at 37 °C and 5% CO2.
(§2) Ratio imaging was performed on an inverted fluorescence microscope (DM IRE2, Leica; http://www.leica.com) with a Quant EM digital camera (Photometrics; http://www.photomet.com) and 20× oil immersion, 63× water immersion lenses (HC PL APO 20×/0.7 or HCX PL APO, Leica). Dual emission intensity ratios were simultaneously recorded using a DualView with an OI-5-EM filter set (eCFP 480/30; eYFP 535/40; Optical Insights; http://www.optical-insights.com) and Slidebook 4.2 (Intelligent Imaging Innovations; http://www.intelligent-imaging.com/). A Lambda DG4 (Sutter Instruments; http://www.sutter.com) provided excitation light. Images were acquired within the linear detection range of the camera and exposure times varied between 50 and 200 ms, depending on the expression level, with software binning between 2 and 3. Fluorescence intensities for eCFP and Venus were typically in the range of 6,000–8,000 and 12,000–16,000, respectively. Typical background values were around 1,000. Cells were perfused with Tyrode's buffer supplemented with ligands at flow rates of 1.0 ml/min in a vacuum chamber (Vacu-Cell VC-MPC-TW, C&L Instruments; http://www.fluorescence.com/) with a total volume of 0.1 ml. Buffers were exchanged using an eight-way automated ValveBank (AutoMate; http://www.autom8.com/). Inhibitors BCH and α-(methylamino)isobutyric acid (MeIAB) were used at 5 mM concentrations. For determination of the substrate specificity of tryptophan exchange, all 20 amino acids were tested at 100 μM concentrations. Analyses were repeated at least three times with similar results.

[2] = tested on: COS-7 cells; assay: Perfusion ratio imaging of tryptophan uptake and exchange in COS-7 cells expressing FLIPW-CTYT (LAT1-like exchanger); assay type: cell-based; conditions: for Tryptophan export induced by extracellular tryptophan degradation product: tryptophan-preloaded COS-7 cells, DL-HK 200–1,000 μM; for Tryptophan export from the cytosol promoted by extracellular amino acid: COS-7 loaded with tryptophan, amino acid at 100 μM; for Effect on uptake rate of 100 μM L-tryptophan: COS-7, inhibitors at 5 mM
Experimental: as §1
as §2, with “Dual emission intensity ratios were simultaneously recorded using a DualView with an OI-5-EM filter set (eCFP 480/30; eYFP 535/40; Optical Insights; http://www.optical-insights.com) and Slidebook 4.2 (Intelligent Imaging Innovations; http://www.intelligent-imaging.com/).” left out, “concentrations.” for “concentrations. Analyses were repeated at least three times with similar results.”

[3] = target: T1, FLIPW-CTYT (Escherichia coli, UniProt P0A881); assay: In vitro FRET ligand titration of FLIPW-CTYT; assay type: binding, E. coli; conditions: for FLIPW-CTYT FRET response or interference with tryptophan binding: in vitro, unpublished data; for Kd: 20 mM MOPS pH 7.0
T1 construct: made in house; host or cells: E. coli BL21(DE3)gold
Experimental: (§3) The eCFP emission used for the ratio calculation was determined at 485 nm. Protein was diluted to give Venus readouts of 20,000–30,000 at a manual gain of between 70–75. By using the change in FRET ratio upon binding of ligand, affinity constants (K d) were determined by fitting the titration curves to a single-site binding isotherm: [drawing 1] with [L], ligand concentration; n, number of equal binding sites; R, ratio; R apo, ratio in the absence of ligand; and R sat, ratio at saturation with ligand. Three independent protein preparations were analyzed and each protein preparation was analyzed in triplicate.

[4] = target: T2, FLIPW-CTY (Escherichia coli, UniProt P0A881); assay: In vitro FRET ligand titration of FLIPW-CTY; assay type: binding, E. coli; conditions: for Kd: 20 mM MOPS pH 7.0, read-out: Affinity of FLIPW-CTY for tryptophan substrates
T2 construct: made in house; host or cells: E. coli BL21(DE3)gold
Experimental: as §3

[5] = tested on: COS-7 cells; conditions: read-out: Apparent affinity constant KM for combined transport and metabolism; COS-7, 96-well microplate, Tyrode's buffer
Experimental: COS-7 cells were grown in Dulbecco's modified Eagle's medium (high glucose; DMEM, Gibco; http://www.invitrogen.com) with 10% fetal calf serum and 50 units (U)/ml penicillin and 50 μg/ml streptomycin (Gibco). […] Cells were cultured at 37 °C and 5% CO2. For imaging, cells were cultured in 8-well LabTekII German tissue culture glass slides (Nalge Nunc International; http://www.nalgenunc.com) and transiently transfected at 50%–70% confluence using Lipofectamine 2000 Reagent (Invitrogen) in Opti-MEM I reduced serum medium (Gibco). After transfection, cells were cultured for 16 h in Opti-MEM I followed by 3 h in growth medium prior to imaging.
Adherent COS-7 cells in 96-well microplates were washed once with 100 μl Tyrode's buffer (119 mM NaCl, 2.5 mM KCl, 2 mM CaCl2, 2 mM MgCl2, 25 mM HEPES, 30 mM glucose, pH 7.3–7.4). The initial FRET ratio was measured by recording the eCFP and Venus emissions at 485 nm and 528 nm, respectively, after excitation of eCFP at 433 nm in a Safire monochromator microplate reader (Tecan). Standard deviation of the initial ratios was less than 10%. After addition of 100 μl tryptophan in Tyrode's buffer the FRET ratio was recorded with 2-min intervals for up to 2 h. Uptake rates were determined from linear parts in the initial FRET change and fitted with the nonlinear regression program Origin 6.1 (OriginLab; http://www.originlab.com).

[6] = tested on: human LAT1; parameters: method as in PMID 11557028; conditions: LAT1 expressed in oocytes, static conditions; cited from earlier work
[7] = target: T3, LAT1 (Homo sapiens, UniProt Q01650); assay: Velocity of intracellular FLIPW-CTYT FRET response by single-cell imaging versus external L-tryptophan in human KB cells perfused with Tyrode's buffer, histidine as counterexchange substrate, Michaelis-Menten fit.; assay type: cell-based; conditions: read-out: affinity of KB cells for combined tryptophan uptake and metabolism under perfusion conditions
T3 construct: gene SLC7A5; endogenous transporter of KB cells expressing cytosolic FLIPW-CTYT sensor
Experimental: KB cells originate from a human oral squamous cell carcinoma and express only LAT1 for uptake of neutral amino acids as shown by reverse-transcriptase (RT)-PCR [37] and RNA interference (RNAi).
According to the FRET theory, an increase in Venus signal is accompanied by a decrease in eCFP signal. Ratio defined as fluorescence intensity quotient obtained with emission filters 535/40 nm over 480/30 nm. (B) Effect of 5 mM BCH inhibitor on the uptake rate of 100 μM L-tryptophan. Error bars indicate standard deviation. […] Error bars indicate standard deviation. […]
Ratio imaging was performed on an inverted fluorescence microscope (DM IRE2, Leica; http://www.leica.com) with a Quant EM digital camera (Photometrics; http://www.photomet.com) and 20× oil immersion, 63× water immersion lenses (HC PL APO 20×/0.7 or HCX PL APO, Leica). Dual emission intensity ratios were simultaneously recorded using a DualView with an OI-5-EM filter set (eCFP 480/30; eYFP 535/40; Optical Insights; http://www.optical-insights.com) and Slidebook 4.2 (Intelligent Imaging Innovations; http://www.intelligent-imaging.com/). […] Fluorescence intensities for eCFP and Venus were typically in the range of 6,000–8,000 and 12,000–16,000, respectively. […]

[8] = tested on: LAT1-like amino acid exchanger; assay: Velocity of intracellular FLIPW-CTYT FRET response by single-cell imaging versus external L-tryptophan in COS-7 cells perfused with Tyrode's buffer, histidine as counterexchange substrate, Michaelis-Menten fit.; assay type: cell-based; conditions: read-out: affinity of the cells for combined uptake and metabolism of tryptophan
Experimental: Upon perfusion with 100 μM L-tryptophan, the FRET ratio increased instantaneously, corresponding to rising levels of cytosolic tryptophan. […] This way, cells could be repeatedly loaded with tryptophan and unloaded using histidine (Figure 4A). […] Na^+ independence and BCH sensitivity are characteristic of the transport properties of LAT1- and LAT2-like amino acid counterexchangers. […] LAT2 is expressed in the proximal tubule of the kidney, so it might be expressed in COS-7 cells. In addition, LAT1 is expressed in various human tumor cell lines and, consequently, is likely to be present in COS-7 cells as well.
According to the FRET theory, an increase in Venus signal is accompanied by a decrease in eCFP signal. Ratio defined as fluorescence intensity quotient obtained with emission filters 535/40 nm over 480/30 nm. […] Error bars indicate standard deviation. […]
Ratio imaging was performed on an inverted fluorescence microscope (DM IRE2, Leica; http://www.leica.com) with a Quant EM digital camera (Photometrics; http://www.photomet.com) and 20× oil immersion, 63× water immersion lenses (HC PL APO 20×/0.7 or HCX PL APO, Leica). Dual emission intensity ratios were simultaneously recorded using a DualView with an OI-5-EM filter set (eCFP 480/30; eYFP 535/40; Optical Insights; http://www.optical-insights.com) and Slidebook 4.2 (Intelligent Imaging Innovations; http://www.intelligent-imaging.com/). […]

[9] = target: T4, FLIPW-TCTY (Escherichia coli, UniProt P0A881); assay: FRET ratio (528/485 nm, eCFP excitation 433 nm) titration of purified sensor with L-tryptophan in 20 mM MOPS, pH 7.0, fitted to a single-site binding isotherm.; conditions: n = 3
T4 construct: gene trpR
Experimental: as §3

T3 sequence (Q01650 whole entry, the tested form may be a part): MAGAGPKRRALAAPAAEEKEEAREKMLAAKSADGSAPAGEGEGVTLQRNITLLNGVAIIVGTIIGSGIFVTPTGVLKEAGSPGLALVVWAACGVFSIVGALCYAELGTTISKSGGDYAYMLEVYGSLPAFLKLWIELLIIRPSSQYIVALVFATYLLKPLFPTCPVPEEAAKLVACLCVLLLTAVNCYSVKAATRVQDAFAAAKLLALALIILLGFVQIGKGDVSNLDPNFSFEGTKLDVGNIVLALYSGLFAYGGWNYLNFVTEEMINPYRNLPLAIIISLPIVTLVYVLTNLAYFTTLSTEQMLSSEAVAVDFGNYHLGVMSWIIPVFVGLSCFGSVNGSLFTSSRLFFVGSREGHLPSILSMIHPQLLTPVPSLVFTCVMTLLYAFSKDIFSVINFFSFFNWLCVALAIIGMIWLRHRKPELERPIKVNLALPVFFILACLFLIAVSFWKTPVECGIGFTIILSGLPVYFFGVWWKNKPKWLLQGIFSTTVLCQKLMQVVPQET
T3 sequence (P08195 103-630 partner): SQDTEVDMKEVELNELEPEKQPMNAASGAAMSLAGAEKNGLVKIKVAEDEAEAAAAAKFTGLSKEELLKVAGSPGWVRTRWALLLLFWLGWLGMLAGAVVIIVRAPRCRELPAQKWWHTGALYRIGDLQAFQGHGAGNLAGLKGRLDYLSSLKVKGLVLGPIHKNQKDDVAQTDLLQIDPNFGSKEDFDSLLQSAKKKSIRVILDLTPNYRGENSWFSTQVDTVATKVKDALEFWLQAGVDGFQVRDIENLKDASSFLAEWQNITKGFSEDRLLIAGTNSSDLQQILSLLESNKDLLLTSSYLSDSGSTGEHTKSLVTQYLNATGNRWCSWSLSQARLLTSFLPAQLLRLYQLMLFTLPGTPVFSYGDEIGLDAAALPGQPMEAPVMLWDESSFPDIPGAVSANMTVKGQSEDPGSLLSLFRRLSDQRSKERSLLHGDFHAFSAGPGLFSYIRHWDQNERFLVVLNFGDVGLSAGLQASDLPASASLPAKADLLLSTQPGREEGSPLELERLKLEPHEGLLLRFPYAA

## Nc1c(O)cccc1C(=O)O [HAA, hydroxy-anthranilic acid]
[1]
  Export of intracellular tryptophan upon perfusion (FRET ratio decrease): not
[2]
  Tryptophan export induced by extracellular tryptophan degradation product: did not result in tryptophan export
[3]
  FLIPW-CTYT FRET response or interference with tryptophan binding: did not result in a FLIPW-CTYT FRET response

## Nc1ccccc1C(=O)CC(N)C(=O)O (centres unmarked) [K, kynurenine]
[1]
  Export of intracellular tryptophan upon perfusion (FRET ratio decrease): exported
[2]
  Tryptophan export induced by extracellular tryptophan degradation product: tryptophan export
[3]
  FLIPW-CTYT FRET response or interference with tryptophan binding: did not result in a FLIPW-CTYT FRET response

## N[C@@H](Cc1ccccc1)C(=O)O [phenylalanine]
[2]
  Tryptophan export from the cytosol promoted by extracellular amino acid: able to promote tryptophan export

## CNC(C)(C)C(=O)O [N-(methylamino)isobutyric acid]
[2]
  Effect on uptake rate of 100 μM L-tryptophan: did not decrease uptake rates

## N[C@@H](Cc1c[nH]c2ccc(O)cc12)C(=O)O [l-5-hydroxy-tryptophan, 5-hydroxy-L-tryptophan]
[4]
  Kd: 6000 ± 800 µM

## Nc1c(O)cccc1C(=O)CC(N)C(=O)O (centres unmarked) [HK, 3-hydroxy-kynurenine]
[1]
  Export of intracellular tryptophan upon perfusion (FRET ratio decrease): exported
[2]
  Tryptophan export induced by extracellular tryptophan degradation product: tryptophan export
[3]
  FLIPW-CTYT FRET response or interference with tryptophan binding: did not result in a FLIPW-CTYT FRET response

## CC[C@H](C)[C@H](N)C(=O)O [isoleucine]
[2]
  Tryptophan export from the cytosol promoted by extracellular amino acid: able to promote tryptophan export

## Cc1ccc2[nH]cc(C[C@H](N)C(=O)O)c2c1 [l-5-methyl-tryptophan, 5-methyl-L-tryptophan]
[4]
  Kd: 60 ± 10 µM
[3]
  Kd: 25 ± 2 µM

## CSCC[C@H](N)C(=O)O [methionine]
[2]
  Tryptophan export from the cytosol promoted by extracellular amino acid: able to promote tryptophan export

## NC1(C(=O)O)CC2CCC1C2 (centres unmarked) [BCH, 2-aminobicyclo-(2,2,1)-heptane-2-carboxylic acid]
[1]; 5 mM BCH
  Effect on LAT1-mediated uptake of 100 μM L-tryptophan: almost completely inhibited
[2]
  Effect on uptake rate of 100 μM L-tryptophan: decreased the uptake of tryptophan

## N[C@@H](Cc1c[nH]cn1)C(=O)O [L-histidine]
[1]
  Export of intracellular tryptophan upon perfusion (FRET ratio decrease): decreased
[2]
  Tryptophan export from the cytosol promoted by extracellular amino acid: export of tryptophan from the cytosol

## CC(C)[C@H](N)C(=O)O [valine]
[2]
  Tryptophan export from the cytosol promoted by extracellular amino acid: able to promote tryptophan export

## N[C@@H](Cc1c[nH]c2ccccc12)C(=O)O [l-tryptophan, L-tryptophan]
[1]; perfusion conditions
  Affinity for combined tryptophan uptake and metabolism: 5.1 ± 1.0 µM
[2]; COS-7, perfusion
  Affinity of the cells for combined uptake and metabolism of tryptophan: 2.6 ± 1.1 µM
[5]
  Km: 0.88 ± 0.27 µM
[6]
  Reported affinity of human LAT1 for tryptophan uptake: 21 µM
[4]
  Kd: 220 ± 20 µM
[3]
  Kd: 100 ± 14 µM

## N[C@@H](Cc1c[nH]c2ccccc12)C(=O)O [L-tryptophan]
[7]
  Km: 5.1 µM
[8]
  Km: 2.6 µM
[9]
  Kd: 20 µM

## N[C@H](Cc1c[nH]c2ccccc12)C(=O)O [d-tryptophan, D-tryptophan]
[4]
  Kd: 3100 ± 300 µM
[4]; titration of FLIPW-CTY, higher concentrations than L-tryptophan
  Concentration for decrease of FRET ratio relative to L-tryptophan: about 5 fold
[3]
  Kd: 1280 ± 100 µM

## CC(C)C[C@H](N)C(=O)O [leucine]
[2]
  Tryptophan export from the cytosol promoted by extracellular amino acid: able to promote tryptophan export

## N[C@@H](Cc1ccc(O)cc1)C(=O)O [tyrosine]
[2]
  Tryptophan export from the cytosol promoted by extracellular amino acid: able to promote tryptophan export
